Molecular target: T1, RORc (Homo sapiens, UniProt P51449)
T1 construct: host or cells: E. coli
T1 sequence (P51449 269-508 limits assumed): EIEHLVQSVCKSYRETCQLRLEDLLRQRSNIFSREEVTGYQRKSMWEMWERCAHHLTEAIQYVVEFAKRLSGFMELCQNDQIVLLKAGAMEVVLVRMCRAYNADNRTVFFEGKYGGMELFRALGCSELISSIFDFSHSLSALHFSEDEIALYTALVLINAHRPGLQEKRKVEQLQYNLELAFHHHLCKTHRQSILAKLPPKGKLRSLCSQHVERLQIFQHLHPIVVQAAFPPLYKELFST
Test: In Vitro RORc Ligand Binding Assay
Conditions: IC50 values for RORc
Procedure: This assay was used to determine a compound's potency in inhibiting activity of RORc by determining, Kiapp, IC50, or percent inhibition values.
On day of the assay, 100 uL of 0.05% CHAPS (in deionized H2O) was added to all wells of the GFB Unifilter plate and allowed soak for 1 h. A wash buffer of 50 mM HEPES (pH 7.4), 150 mM NaCl, and 5 mM MgCl2 was prepared to wash the filter plate. To prepare an assay buffer, BSA was added to the wash buffer to reach 0.01% and DTT was added to reach 1 mM.
The 20× compound stocks were diluted in DMSO with Assay Buffer 4-fold to reach 5× the final test concentration in 25% DMSO (10 uL compound+30 uL Assay Buffer). Solutions were mixed by aspiration several times with a pipette set on 50 uL volume.
For two point screening, 10 mM stock compound solutions were diluted in DMSO to obtain 200 uM (20× the high test concentration) and then diluted 10-fold further to reach 20 uM (20× the low test concentration). The 20× stocks were diluted 4-fold with Assay Buffer (10 uL compound+30 uL Assay Buffer) to reach 5× the test concentrations (50 uM and 5 uM) and 10 uL were added to two assay plates for the duplicate wells. With each concentration tested on 2 plates, each set of 80 compounds used 4 assay plates (1 uM and 10 uM, with n=2).
For 25-hydroxycholesterol in 25% DMSO/75% Assay Buffer; 10 uL per well was used for NSB samples. Wells for Total Binding and No Receptor sample determination contained 10 uL of 25% DMSO/75% Assay Buffer per well.
Add 20 uL to all wells to reach 6 nM final concentration in the assay.
Stock receptor solution was diluted in assay buffer to obtain 1.5 ug/mL in Assay Buffer. 20 uL was added to all wells. For No Receptor samples, 20 uL Assay Buffer was substituted for receptor solution.
Assay plates were 96-well polypropylene V-bottom plates. […] 10 uL of 25% DMSO/75% Assay Buffer was added to Total Binding or No Receptor wells. 10 uL of 5 uM 25-hydroxycholesterol in 25% DMSO/75% Assay Buffer was added to NSB wells. […] 20 uL of 1.5 ug/mL RORc receptor was added to wells (or 40 uL Assay Buffer to No R wells). Following addition to the wells, the plates were incubated 3 h at 25° C.
Using a Packard Filtermate Harvester, the filter plate were washed 4 times following transfer of the incubated samples. Plates were dry-filtered completely (2 h at 50° C. or overnight at room temperature). 50 uL Microscint 0 was added to all wells and read on Topcount protocol Inverted.
Final concentrations were as follows: 50 mM HEPES buffer (pH 7.4); 150 mM NaCl; 1 mM DTT; 5 mM MgCl2; 0.01% BSA; 5% DMSO; 0.6 ug/mL RORc receptor; 6 nM 25-[^3H]hydroxycholesterol. For NSB wells, 1 uM 25-hydroxycholesterol was also present.

SMILES | IC50 [nM]
CC(NC(=O)c1cnn(C)c1)c1cc(F)c(CN2[C@@H](C)CC[C@H](c3ccccc3)S2(=O)=O)cc1F (stereo in doubt) [Compound 61, N-[1-[2,5-difluoro-4-[[(3S,6R)-3-methyl-1,1-dioxo-6-phenyl-thiazinan-2-yl]methyl]phenyl]ethyl]-1-methyl-pyrazole-4-carboxamide] | 14
C[C@H]1CC[C@H](c2ccccc2)S(=O)(=O)N1Cc1ccc(C2(C(=O)NC3(CO)CC3)CCOCC2)cc1F [Compound 35, 4-[3-fluoro-4-[[(3S,6R)-3-methyl-1,1-dioxo-6-phenyl-thiazinan-2-yl]methyl]phenyl]-N-[1-(hydroxymethyl)cyclopropyl] tetrahydropyran-4-carboxamide] | 42.9
COc1cc(C(=O)NC(C)c2cc(F)c(CN3[C@@H](C)CC[C@H](c4ccccc4)S3(=O)=O)cc2F)on1 (stereo in doubt) [Compound 74, N-[1-[2,5-difluoro-4-[[(3S,6R)-3-methyl-1,1-dioxo-6-phenyl-thiazinan-2-yl]methyl]phenyl]ethyl]-3-methoxy-isoxazole-5-carboxamide] | 7.3
C[C@H]1CC[C@H](c2ccccc2)S(=O)(=O)N1Cc1cc(F)c(C2(C(=O)N[C@H]3C[C@@H](O)C3)CCOCC2)cc1F [Compound 38, 4-[2,5-difluoro-4-[[(3S,6R)-3-methyl-1,1-dioxo-6-phenyl-thiazinan-2-yl]methyl]phenyl]-N-(3-hydroxycyclobutyl) tetrahydropyran-4-carboxamide] | 32.6
C[C@H]1CC[C@H](c2ccccc2)S(=O)(=O)N1Cc1cc(F)c(C23CC(C)(C2)OC3=O)cc1F [Compound 27, 4-[2,5-difluoro-4-[[(3S,6R)-3-methyl-1,1-dioxo-6-phenyl-thiazinan-2-yl]methyl]phenyl]-1-methyl-2-oxabicyclo[2.1.1]hexan-3-one] | 21.7
C[C@H]1CC[C@H](c2ccccc2)S(=O)(=O)N1Cc1ccc(C2(C(=O)NC3CC3)CCOCC2)cc1F [Compound 30, N-cyclopropyl-4-[3-fluoro-4-[[(3S,6R)-3-methyl-1,1-dioxo-6-phenyl-thiazinan-2-yl]methyl]phenyl]tetrahydropyran-4-carboxamide] | 129
C[C@H]1CC[C@H](c2ccccc2)S(=O)(=O)N1Cc1cc(F)c(C2(C(N)=O)CC(CC#N)C2)cc1F (stereo partly drawn) [Compound 44, 3-(cyanomethyl)-1-[2,5-difluoro-4-[[(3S,6R)-3-methyl-1,1-dioxo-6-phenyl-thiazinan-2-yl]methyl]phenyl]cyclobutane-carboxamide] | 18.5
C[C@H]1CC[C@H](c2ccccc2)S(=O)(=O)N1Cc1ccc(C2(C(=O)NCC3CC3)CCOCC2)cc1F [Compound 31, N-(cyclopropylmethyl)-4-[3-fluoro-4-[[(3S,6R)-3-methyl-1,1-dioxo-6-phenyl-thiazinan-2-yl]methyl]phenyl]tetrahydropyran-4-carboxamide] | 83.5
CC(NCc1cocn1)c1cc(F)c(CN2[C@@H](C)CC[C@H](c3ccccc3)S2(=O)=O)cc1F (stereo partly drawn) [Compound 54, 1-[2,5-difluoro-4-[[(3S,6R)-3-methyl-1,1-dioxo-6-phenyl-thiazinan-2-yl]methyl]phenyl]-N-(oxazol-4-ylmethyl)ethanamine] | 255
C[C@H]1CC[C@H](c2ccccc2)S(=O)(=O)N1Cc1cc(F)c([C@H](OC2CCOCC2)C(N)=O)cc1F [Compound 7, (2S)-2-[2,5-difluoro-4-[[(3S,6R)-3-methyl-1,1-dioxo-6-phenyl-thiazinan-2-yl]methyl]phenyl]-2-tetrahydropyran-4-yloxy-acetamide] | 64.2
C[C@H]1CC[C@H](c2ccccc2)S(=O)(=O)N1Cc1cc(F)c(C2(OCC(N)=O)CC3(COC3)C2)cc1F [Compound 12, 2-[[6-[2,5-difluoro-4-[[(3S,6R)-3-methyl-1,1-dioxo-6-phenyl-thiazinan-2-yl]methyl]phenyl]-2-oxaspiro[3.3]heptan-6-yl]oxy]acetamide] | 2.3
C[C@H]1CC[C@H](c2ccccc2)S(=O)(=O)N1Cc1cc(F)c(C2(OCC(=O)NC3CC3)CCOCC2)cc1F [Compound 41, N-cyclopropyl-2-[4-[2,5-difluoro-4-[[(3S,6R)-3-methyl-1,1-dioxo-6-phenyl-thiazinan-2-yl]methyl]phenyl]tetrahydropyran-4-yl]oxy-acetamide] | 6.8
C[C@H]1CC[C@H](c2ccccc2)S(=O)(=O)N1Cc1cc(F)c([C@@](C)(CO)C(N)=O)cc1F [Compound 10, (2S)-2-[2,5-difluoro-4-[[(3S,6R)-3-methyl-1,1-dioxo-6-phenyl-thiazinan-2-yl]methyl]phenyl]-3-hydroxy-2-methyl-propanamide] | 35.4
CC(NC(=O)c1ccnn1C)c1cc(F)c(CN2[C@@H](C)CC[C@H](c3ccccc3)S2(=O)=O)cc1F (stereo in doubt) [Compound 69, N-[1-[2,5-difluoro-4-[[(3S,6R)-3-methyl-1,1-dioxo-6-phenyl-thiazinan-2-yl]methyl]phenyl]ethyl]-2-methyl-pyrazole-3-carboxamide] | 74.5
CNC(=C[N+](=O)[O-])NC(C)c1cc(F)c(CN2C(C)CCC(c3ccccc3)S2(=O)=O)cc1F [Compound 28, N1′-[1-[2,5-difluoro-4-[[(3S,6R)-3-methyl-1,1-dioxo-6-phenyl-thiazinan-2-yl]methyl]phenyl]ethyl]-N1-methyl-2-nitro-ethene-1,1-diamine] | 20
CN/C(=C\C#N)NC(C)c1cc(F)c(CN2[C@@H](C)CC[C@H](c3ccccc3)S2(=O)=O)cc1F (stereo partly drawn) [Compound 45, 3-[1-[2,5-difluoro-4-[[(3S,6R)-3-methyl-1,1-dioxo-6-phenyl-thiazinan-2-yl]methyl]phenyl]ethylamino]-3-(methylamino)prop-2-enenitrile; formic acid] | 695
CC(NC(=O)c1cnccn1)c1cc(F)c(CN2[C@@H](C)CC[C@H](c3ccccc3)S2(=O)=O)cc1F (stereo in doubt) [Compound 57, N-[1-[2,5-difluoro-4-[[(3S,6R)-3-methyl-1,1-dioxo-6-phenyl-thiazinan-2-yl]methyl]phenyl]ethyl]pyrazine-2-carboxamide] | 145
CC(NC(=O)c1cc[nH]n1)c1cc(F)c(CN2[C@@H](C)CC[C@H](c3ccccc3)S2(=O)=O)cc1F (stereo in doubt) [Compound 68, N-[1-[2,5-difluoro-4-[[(3S,6R)-3-methyl-1,1-dioxo-6-phenyl-thiazinan-2-yl]methyl]phenyl]ethyl]-1H-pyrazole-3-carboxamide] | 83.3
C[C@H]1CC[C@H](c2ccccc2)S(=O)(=O)N1Cc1ccc(C2(C(=O)NC3CC(O)C3)CCOCC2)cc1F (stereo partly drawn) [Compound 34, 4-[3-fluoro-4-[[(3S,6R)-3-methyl-1,1-dioxo-6-phenyl-thiazinan-2-yl]methyl]phenyl]-N-(3-hydroxycyclobutyl)tetrahydropyran-4-carboxamide] | 13.6
C[C@H](NC1=CC(=O)CCC1)c1cc(F)c(CN2[C@@H](C)CC[C@H](c3ccccc3)S2(=O)=O)cc1F [Compound 26, 3-[[(1S)-1-[2,5-difluoro-4-[[(3S,6R)-3-methyl-1,1-dioxo-6-phenyl-thiazinan-2-yl]methyl]phenyl]ethyl]amino] cyclohex-2-en-1-one] | 131
C[C@H]1CC[C@H](c2ccccc2)S(=O)(=O)N1Cc1cc(F)c([C@]2(C(N)=O)C[C@@](C)(O)C2)cc1F [Compound 49, 1-[2,5-difluoro-4-[[(3S,6R)-3-methyl-1,1-dioxo-6-phenyl-thiazinan-2-yl]methyl]phenyl]-3-hydroxy-3-methyl-cyclobutanecarboxamide] | 199
CC(NC(=O)c1csc(N)n1)c1cc(F)c(CN2[C@@H](C)CC[C@H](c3ccccc3)S2(=O)=O)cc1F (stereo in doubt) [Compound 78, 2-amino-N-[1-[2,5-difluoro-4-[[(3S,6R)-3-methyl-1,1-dioxo-6-phenyl-thiazinan-2-yl]methyl]phenyl]ethyl]thiazole-4-carboxamide] | 215
